What was measured:
[1] = test system: Nx rats; assay: Preliminary experiments to determine the doses of Eple and Ly; format: in vivo
Procedure: Preliminary experiments were performed to exclude the possibility that any differences between Eple and Ly, both in monotherapy and as add-ons to L, were simply due to the use of inadequately low doses of either compound. In the first set of experiments, Nx rats received Eple at the recommended dose of 85 mg/kg, and at 150 mg/kg, higher than in most studies reported so far. […] Other Nx rats received Ly at either 12 mg/kg (the recommended dose) or 20 mg/kg. […] Based on these preliminary results, we set the doses of Eple and Ly at 150 mg/kg and 20 mg/kg, respectively.

[2] = Pharmacokinetics (data not shown)
[3] = target: T1, human glucocorticoid receptor (hGR) (Homo sapiens, UniProt P04150); assay: Radioligand binding, hGR expressed in HEK293 cells
T1 construct: expressed in transfected cells; host or cells: HEK293 cells
T1 sequence (P04150 1-777): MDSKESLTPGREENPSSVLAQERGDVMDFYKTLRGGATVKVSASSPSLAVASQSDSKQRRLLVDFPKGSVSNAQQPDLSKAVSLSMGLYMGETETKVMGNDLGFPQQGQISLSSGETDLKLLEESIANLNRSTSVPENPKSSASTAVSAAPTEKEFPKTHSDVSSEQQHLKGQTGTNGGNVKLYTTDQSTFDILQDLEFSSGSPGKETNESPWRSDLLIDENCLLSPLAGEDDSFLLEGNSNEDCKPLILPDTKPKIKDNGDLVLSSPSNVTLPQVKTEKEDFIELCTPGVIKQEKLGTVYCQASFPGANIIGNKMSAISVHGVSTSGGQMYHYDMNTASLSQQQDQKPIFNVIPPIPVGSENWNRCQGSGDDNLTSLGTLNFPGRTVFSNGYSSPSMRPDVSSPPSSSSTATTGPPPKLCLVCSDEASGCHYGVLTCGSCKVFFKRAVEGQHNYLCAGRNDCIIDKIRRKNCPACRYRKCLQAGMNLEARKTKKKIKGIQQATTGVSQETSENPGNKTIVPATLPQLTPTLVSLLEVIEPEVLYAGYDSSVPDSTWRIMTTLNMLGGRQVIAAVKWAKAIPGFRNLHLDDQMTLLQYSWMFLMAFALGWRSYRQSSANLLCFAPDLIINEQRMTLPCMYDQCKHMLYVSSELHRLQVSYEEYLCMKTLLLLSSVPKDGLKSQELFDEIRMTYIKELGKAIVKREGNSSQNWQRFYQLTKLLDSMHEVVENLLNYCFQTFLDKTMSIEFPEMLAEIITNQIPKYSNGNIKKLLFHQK
Procedure: Affinity of ligands to the soluble receptor was determined using vacuum filtration methods, preparing soluble receptors in 96-well Falcon polystyrene plates (BD Biosciences, Bedford, MA) in a total volume of 250 μl. The hMR Sf9 lysate (approximately 20–25 μg protein in 20 μl) was incubated in the absence or presence of competing ligands with 10 μl of [1,2,6,7-3H] […] Binding studies for ligands for hPR and hAR were determined using [1,2,6,7-3H(N)] Progesterone (specific activity 103 Ci/mmol, at a final concentration 0.5 nM; NET381, NEN/Perkin Elmer Life Sciences, Boston, MA) and [17α-methyl-3H] Mibolerone, an enzymaticaly stable analog of testosterone (specific activity 76.8 Ci/mmol, final concentration 0.3 nM; NET919, NEN), respectively. Specific binding of 3H-progesterone for hPR and 3H-mibolerone for hAR was determined in the presence and absence of 1 μM mifepristone. Inhibition constants (Ki), were determined either from the Cheng-Prusoff equation[32], or directly using non-linear regression curve fitting to a three-parameter one-site competitive equation. Ki values obtained from individual concentration response curves were reported as the mean ± SEM. Protein was measured using colorimetric detection and quantification of bicinchoninic acid (BCA Protein Assay, Pierce, Rockford, IL). Cos-7L cells were cotransfected with expression vectors and a reporter plasmid responsive to all 3 nuclear hormone receptors. pBluescript II SK (+) (Stratagene, San Diego, CA) was included as a source of carrier DNA. The number of repetitions of full concentration response curves (n) represents values from at least two independent experiments for each condition. Concentration response curves were analyzed statistically using a four-parameter logistic equation (Hill equation for sigmoid curves). Similar methodology was adopted for the human glucocorticoid receptor (hGR) expressed in HEK293 cells.

SMILES: O=c1[nH]c2ccc(/C=C3\c4ccc(F)cc4COc4cc(F)ccc43)cc2[nH]1 [Ly]
- Maximal nontoxic dose, defined by stunting of body growth [1]: 20 mg/kg
- Dose-response effect on the parameters studied ([1]; Ly 12 mg/kg vs 20 mg/kg): A dose-response effect was observed for most parameters
- Body growth ([1]; Ly 30 mg/kg): severe growth stunting
- Pharmacokinetics properties [2]: good pharmacokinetics properties
- Ki ([3]; hGR expressed in HEK293 cells, read-out: Mean Ki ± SEM hGR*): 112 ± 18 nM
- Ratio of Ki's hGR*: hMR ([3]; selectivity): 70

— publication PMC5554220, “A Novel Aldosterone Antagonist Limits Renal Injury in 5/6 Nephrectomy” (Scientific Reports, 2017)
